One assay deals with T1, Plasmin (Homo sapiens, UniProt P00747).
T1 construct: Plasmin; MPBio; 19419890; purchased MPBio 19419890
The assay can be described thus: Serine protease inhibition: plasmin. The conditions noted are these: Table 8A, class symbols; read-out: IC50 Plasmin. It counts as biochemical, mammalian. As for the experimental part: (§1) The effect of selected BLIs on the enzymatic activity of some common mammalian serine proteases was evaluated.
(§2) 50 μl of the diluted enzyme was mixed with 50 μl of inhibitor at various concentrations and 50 μl of corresponding buffer (Table 7). Reaction mixtures were incubated for 10 min at 37° C. Subsequently, 50 μl of corresponding substrate (Table 7) was added and absorbance or fluorescence was monitored for 30 min on SpectraMax M2 plate reader (Molecular Devices). 4-(2-Aminoethyl)benzenesulfonyl fluoride hydrochloride (AEBSF) and leupeptin were used as positive controls. Rates of reaction were calculated and presented relative to “no treatment” control.

The target of another assay is T2, Chymotrypsin (Bos taurus, UniProt P00766).
T2 construct: purchased Calbiochem 230832
Put plainly: Serine protease inhibition: chymotrypsin. It counts as biochemical, mammalian. The conditions noted are these: Table 8A, class symbols; read-out: IC50 Chymotrypsin. An outline of the steps:
(§3)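 Each diluted enzyme preincubated 10 min at 37° C with compound at various concentrations in its own buffer, then its substrate added and absorbance or fluorescence followed 30 min. Reaction rates expressed relative to untreated control; AEBSF and leupeptin as positive controls.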

A further assay concerns ECL1002. The assay can be described thus: Potentiation of aztreonam, strain ECL1002. It counts as cell-based. Particulars: minimum BLI concentration inhibiting growth with 4 μg/mL aztreonam.
The target in another assay is T3, HtrA2 (Homo sapiens, UniProt O43464).
T3 sequence (O43464 134-458): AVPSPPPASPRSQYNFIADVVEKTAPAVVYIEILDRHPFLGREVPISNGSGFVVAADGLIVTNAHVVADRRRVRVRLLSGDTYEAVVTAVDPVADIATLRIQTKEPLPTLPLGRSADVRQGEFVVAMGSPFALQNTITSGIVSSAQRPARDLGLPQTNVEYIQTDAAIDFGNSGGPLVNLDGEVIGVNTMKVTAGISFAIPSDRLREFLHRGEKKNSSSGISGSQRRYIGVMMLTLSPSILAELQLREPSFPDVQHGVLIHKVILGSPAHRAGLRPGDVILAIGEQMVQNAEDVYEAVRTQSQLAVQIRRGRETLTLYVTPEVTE
Put plainly: Serine protease inhibition: HtrA2. It counts as biochemical, mammalian. The conditions noted are these: Table 8B; read-out: IC50 HtrA2. As for the experimental part: as §1, §2

For another assay, the target named is T4, Trypsin (Bos taurus, UniProt P00760).
T4 construct: purchased Calbiochem 6502
T4 sequence (P00760 24-246): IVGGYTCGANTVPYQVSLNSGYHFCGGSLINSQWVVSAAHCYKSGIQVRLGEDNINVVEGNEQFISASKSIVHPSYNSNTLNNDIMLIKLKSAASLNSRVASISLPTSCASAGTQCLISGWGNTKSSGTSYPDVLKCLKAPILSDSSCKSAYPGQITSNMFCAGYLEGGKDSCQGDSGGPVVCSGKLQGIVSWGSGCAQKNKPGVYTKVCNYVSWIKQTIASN
The assay can be described thus: Serine protease inhibition: trypsin. The conditions noted are these: Table 8A, class symbols; read-out: IC50 Trypsin. It counts as biochemical, mammalian. How it is done: as §1, §2

A further assay deals with CMY-2 (Klebsiella pneumoniae, UniProt Q48434). Put plainly: Inhibition of nitrocefin cleavage by purified CMY-2. It counts as biochemical. The conditions noted are these: nitrocefin reporter substrate, purified enzyme; read-out: Ki (CMY-2, NCF). How it is done: (§4) Purified enzymes were mixed with various concentrations of inhibitors in reaction buffer and incubated for 10 min at room temperature. Nitrocefin was added and substrate cleavage profiles were recorded at 490 nm every 10 sec for 10 min.
Chain of CMY-2 (Q48434 21-381, species assumed): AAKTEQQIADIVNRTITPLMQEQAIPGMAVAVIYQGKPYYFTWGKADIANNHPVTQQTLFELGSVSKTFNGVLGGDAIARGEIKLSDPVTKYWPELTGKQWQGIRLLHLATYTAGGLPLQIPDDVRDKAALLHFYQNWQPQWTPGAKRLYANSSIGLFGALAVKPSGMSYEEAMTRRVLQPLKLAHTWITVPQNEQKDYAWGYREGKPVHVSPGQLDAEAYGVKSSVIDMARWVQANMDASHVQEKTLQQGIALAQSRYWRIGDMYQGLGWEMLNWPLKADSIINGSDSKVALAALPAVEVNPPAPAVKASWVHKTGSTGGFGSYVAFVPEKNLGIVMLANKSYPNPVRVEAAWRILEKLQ

The target in another assay is T5, Urokinase (Homo sapiens, UniProt P00749).
T5 construct: purchased Calbiochem 672112
The assay can be described thus: Serine protease inhibition: urokinase. It counts as biochemical, mammalian. Particulars: Table 8A, class symbols; read-out: IC50 Urokinase. The essentials: as §3

A further assay has as its system KP1004 (K-2). Put plainly: Potentiation of aztreonam, strain KP1004. The conditions noted are these: minimum BLI concentration inhibiting growth with 4 μg/mL aztreonam. It counts as cell-based.
Another assay concerns ec308 (SHV-5). The assay can be described thus: Potentiation of tigemonam, strain ec308. Particulars: minimum BLI concentration inhibiting growth with 4 μg/mL tigemonam. It counts as cell-based.
The next assay has as its target CTX-M-14 (Escherichia coli, UniProt Q9L5C7). Put plainly: Inhibition of nitrocefin cleavage by purified CTX-M-14. It counts as biochemical. The conditions noted are these: nitrocefin reporter substrate, purified enzyme; read-out: Ki (CTX-M-14, NCF). The essentials:
(§5)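 10 min RT preincubation, enzyme with inhibitor series in reaction buffer. Substrate nitrocefin; kinetic read 490 nm, 10 sec intervals, 10 min total.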

The next assay deals with OXA-48 (Klebsiella pneumoniae, UniProt Q6XEC0). The assay can be described thus: Inhibition of nitrocefin cleavage by purified OXA-48. The conditions noted are these: nitrocefin reporter substrate, purified enzyme; read-out: Ki (OXA-48, NCF). It counts as biochemical. The essentials:
as §5

A further assay deals with ec302 (TEM-10). The assay can be described thus: Potentiation of aztreonam, strain ec302. It counts as cell-based.
A further assay relates to KP1005 (CTX-M-14). The assay can be described thus: Potentiation of aztreonam, strain KP1005. It counts as cell-based.
Another assay concerns the target T6, Elastase (Sus scrofa, UniProt P00772).
T6 construct: purchased Calbiochem 324682
The assay can be described thus: Serine protease inhibition: elastase. The conditions noted are these: Table 8A, class symbols; read-out: IC50 Elastase. It counts as biochemical, mammalian. As for the experimental part: as §1, §2

The next assay has as its system EC1010 (CMY-6). The assay can be described thus: Potentiation of aztreonam, strain EC1010. It counts as cell-based.
The target of a further assay is P99 (Enterobacter cloacae, UniProt P05364). Put plainly: Inhibition of nitrocefin cleavage by purified P99. Particulars: nitrocefin reporter substrate, purified enzyme; read-out: Ki (P99, NCF). It counts as biochemical. How it is done: as §4
Chain of P99 (P05364 21-381): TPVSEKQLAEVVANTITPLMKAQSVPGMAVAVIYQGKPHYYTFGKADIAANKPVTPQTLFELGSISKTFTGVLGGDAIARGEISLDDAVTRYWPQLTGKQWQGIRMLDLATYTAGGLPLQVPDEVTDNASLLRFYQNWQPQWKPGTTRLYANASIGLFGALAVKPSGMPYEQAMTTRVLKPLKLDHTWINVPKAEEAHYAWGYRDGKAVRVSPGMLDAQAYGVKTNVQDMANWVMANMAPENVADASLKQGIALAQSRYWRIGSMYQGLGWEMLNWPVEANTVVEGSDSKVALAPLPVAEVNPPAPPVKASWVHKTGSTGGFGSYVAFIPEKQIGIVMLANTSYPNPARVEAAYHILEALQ

Chain of OXA-48 (Q6XEC0 23-265 limits assumed): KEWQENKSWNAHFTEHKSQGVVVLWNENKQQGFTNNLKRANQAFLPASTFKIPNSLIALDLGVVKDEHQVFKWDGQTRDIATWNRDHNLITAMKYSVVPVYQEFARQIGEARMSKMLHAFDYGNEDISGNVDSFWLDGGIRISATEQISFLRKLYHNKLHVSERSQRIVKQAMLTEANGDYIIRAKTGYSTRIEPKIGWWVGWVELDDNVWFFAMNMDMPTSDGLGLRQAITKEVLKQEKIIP
T1 sequence (P00747 581-810 limits assumed, species assumed): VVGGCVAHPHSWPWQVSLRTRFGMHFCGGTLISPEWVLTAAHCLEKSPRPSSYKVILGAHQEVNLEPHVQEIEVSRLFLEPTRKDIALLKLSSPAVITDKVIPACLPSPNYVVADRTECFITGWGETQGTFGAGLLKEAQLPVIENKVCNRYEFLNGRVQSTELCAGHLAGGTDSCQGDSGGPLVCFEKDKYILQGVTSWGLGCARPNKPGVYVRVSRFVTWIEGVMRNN
T1 sequence (P00747 97-580 partner limits assumed, species assumed): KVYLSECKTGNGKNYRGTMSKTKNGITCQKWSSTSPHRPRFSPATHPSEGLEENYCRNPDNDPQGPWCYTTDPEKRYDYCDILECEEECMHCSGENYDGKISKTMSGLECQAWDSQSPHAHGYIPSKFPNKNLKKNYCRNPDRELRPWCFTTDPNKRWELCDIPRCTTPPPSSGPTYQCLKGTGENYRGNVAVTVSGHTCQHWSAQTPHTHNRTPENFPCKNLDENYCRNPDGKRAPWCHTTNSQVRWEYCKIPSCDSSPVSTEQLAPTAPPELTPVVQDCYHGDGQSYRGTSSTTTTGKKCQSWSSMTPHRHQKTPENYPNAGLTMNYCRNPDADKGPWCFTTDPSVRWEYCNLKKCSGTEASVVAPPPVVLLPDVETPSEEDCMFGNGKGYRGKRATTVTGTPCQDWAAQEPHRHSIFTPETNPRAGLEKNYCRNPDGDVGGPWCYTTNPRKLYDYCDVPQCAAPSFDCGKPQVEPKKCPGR
T6 sequence (P00772 27-266): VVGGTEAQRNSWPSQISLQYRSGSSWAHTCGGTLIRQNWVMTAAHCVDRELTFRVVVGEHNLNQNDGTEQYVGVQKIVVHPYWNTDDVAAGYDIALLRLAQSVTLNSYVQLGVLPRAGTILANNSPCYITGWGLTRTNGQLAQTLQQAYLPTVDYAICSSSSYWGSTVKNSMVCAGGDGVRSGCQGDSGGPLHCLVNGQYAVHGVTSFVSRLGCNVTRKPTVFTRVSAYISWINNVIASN
Chain of CTX-M-14 (Q9L5C7 entry or part of it): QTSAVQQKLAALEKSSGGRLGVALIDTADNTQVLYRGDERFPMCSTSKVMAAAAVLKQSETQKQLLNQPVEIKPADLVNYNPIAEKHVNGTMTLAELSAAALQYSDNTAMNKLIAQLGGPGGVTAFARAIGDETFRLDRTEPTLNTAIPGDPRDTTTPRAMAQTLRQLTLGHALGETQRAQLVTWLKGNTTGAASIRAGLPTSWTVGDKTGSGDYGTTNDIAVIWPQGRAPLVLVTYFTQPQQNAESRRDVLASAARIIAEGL

As usually defined, the IC50 is the concentration needed to halve the response being measured. In general, Ki refers to a measure of affinity in units of concentration, obtained from inhibition or displacement. `O=C(Cc1cccs1)N[C@H]1Cc2cccc(C(=O)O)c2OB1O` [CPD A, reference compound]: the IC50 on Plasmin is over 800 µM; at Chymotrypsin, under 300 µM; on HtrA2 it was over 500 µM; on Trypsin, over 800 µM; on Urokinase, over 800 µM; on Elastase it was over 800 µM. In addition, in the assay on ECL1002, the “AZT MPC4 ECL1002” value was “Y (Y = MIC of 1 μg/mL to 10 μg/mL)”. For the same compound, the Ki at CMY-2, on CTX-M-14 and on OXA-48 was under 0.001 µM each time. Besides, the “AZT MPC4 K-2 KP1004” value with KP1004 (K-2) is “Y (Y = MIC of 1 μg/mL to 10 μg/mL)”. Moreover, in the assay on ec308 (SHV-5), the “TIG MPC4 SHV-5 ec308” value was “Y (Y = MIC of 1 μg/mL to 10 μg/mL)”. Moreover, the “AZT MPC4 TEM-10 ec302” value in the assay with ec302 (TEM-10) is recorded as “Y (key: X = MIC of less than 1 μg/mL; Y = MIC of 1 μg/mL to 10 μg/mL; Z = MIC of greater than 10 μg/mL)”. Also, the “AZT MPC4 CTX-M-14 KP1005” value in the assay with KP1005 (CTX-M-14) was “Y (key: X = MIC of less than 1 μg/mL; Y = MIC of 1 μg/mL to 10 μg/mL; Z = MIC of greater than 10 μg/mL)”.

In the case of `O=CN[C@H]1Cc2cccc(C(=O)O)c2OB1O` [Compound 4, (R)-3-formamido-2-hydroxy-3,4-dihydro-2H-benzo[e][1,2]oxaborinine-8-carboxylic acid], the IC50 on Plasmin is over 800 µM; at Chymotrypsin, over 800 µM; at HtrA2, over 500 µM; at Trypsin it was over 800 µM; at Urokinase, over 800 µM; on Elastase, over 800 µM. Also, the “AZT MPC4 ECL1002” value in the assay on ECL1002 is “Y (Y = MIC of 1 μg/mL to 10 μg/mL)”. For the same compound, the Ki at CMY-2, at CTX-M-14, on OXA-48 and on P99 was 0.001 to 0.01 µM in each case. For the same compound, the “AZT MPC4 CMY-6 EC1010” value in the assay on EC1010 (CMY-6) was “X (key: X = MIC of less than 1 μg/mL; Y = MIC of 1 μg/mL to 10 μg/mL; Z = MIC of greater than 10 μg/mL)”. The “AZT MPC4 K-2 KP1004” value in the assay with KP1004 (K-2) is on record as “X (X = MIC of less than 1 μg/mL)”. In addition, in the assay on ec308 (SHV-5), the “TIG MPC4 SHV-5 ec308” value is listed as “Y (Y = MIC of 1 μg/mL to 10 μg/mL)”. Moreover, in the assay with ec302 (TEM-10), the “AZT MPC4 TEM-10 ec302” value is on record as “Y (key: X = MIC of less than 1 μg/mL; Y = MIC of 1 μg/mL to 10 μg/mL; Z = MIC of greater than 10 μg/mL)”. Besides, the “AZT MPC4 CTX-M-14 KP1005” value in the assay on KP1005 (CTX-M-14) is “Y (key: X = MIC of less than 1 μg/mL; Y = MIC of 1 μg/mL to 10 μg/mL; Z = MIC of greater than 10 μg/mL)”.

For the origin of these results see patent US9101638B2, “Boronic acid derivatives and therapeutic uses thereof” (Rempex Pharmaceuticals, Inc., priority 2013, dated 2015).
